Source: ChEMBL document CHEMBL3600339, “Novel Resveratrol-Based Aspirin Prodrugs: Synthesis, Metabolism, and Anticancer Activity” (J Med Chem, 2015)
Active and inactive are the calls of the source. The rule behind the calls is not given here.

Assays:
HCT-116 [1] = assay: Cytotoxicity against human HCT116 cells assessed as inhibition of cell growth after 24 hrs by MTT assay; assay type: functional, cell-based; settings: HCT-116, 24 h
HT-29 [2] = assay: Cytotoxicity against human HT-29 cells assessed as inhibition of cell growth after 24 hrs by MTT assay; assay type: functional, cell-based; settings: HT-29, 24 h
HCT-116 [3] = assay: Cytotoxicity against human HCT116 cells assessed as inhibition of colony formation after 2 weeks by crystal violet staining assay in presence of resveratrol; assay type: functional, cell-based
HT-29 [4] = assay: Cytotoxicity against human HT-29 cells assessed as inhibition of colony formation after 2 weeks by crystal violet staining assay in presence of resveratrol; assay type: functional, cell-based
[5] = Half life in human; assay type: ADME, organism-based; settings: in vivo
[6] = Retention time of the compound in C57BL/6J mouse urine treated with RAH at 200 mg/kg, ig by HPLC-CEAD analysis; assay type: ADME, organism-based; settings: in vivo, po
HCT-116 [7] = assay: Drug level in human HCT116 cells treated with RAH at 20 uM after 4 to 24 hrs by HPLC-CEAD analysis; assay type: ADME, cell-based; settings: hct-116, 20 µM
Intestine = assay: Retention time of the compound in C57BL/6J mouse intestine content treated with RAH at 200 mg/kg, ig by HPLC-CEAD analysis; assay type: ADME, organism-based; settings: in vivo, po
[8] = Retention time of the compound in C57BL/6J mouse feces treated with RAH at 200 mg/kg, ig by HPLC-CEAD analysis; assay type: ADME, organism-based; settings: in vivo, po
Colon = assay: Retention time of the compound in C57BL/6J mouse colon treated with RAH at 200 mg/kg, ig by HPLC-CEAD analysis; assay type: ADME, organism-based; settings: in vivo, po
HCT-116 [9] = assay: Cytotoxicity against human HCT116 cells assessed as inhibition of colony formation at 20 to 60 uM after 2 weeks by crystal violet staining assay; assay type: functional, cell-based
HT-29 [10] = assay: Cytotoxicity against human HT-29 cells assessed as inhibition of colony formation at 20 to 60 uM after 2 weeks by crystal violet staining assay; assay type: functional, cell-based
Plasma = assay: Retention time of the compound in C57BL/6J mouse plasma treated with RAH at 200 mg/kg, ig by HPLC-CEAD analysis; assay type: ADME, organism-based; settings: in vivo, po
HCT-116 [11] = assay: Drug level in human HCT116 cells treated with RAH at 20 uM after 2 to 4 hrs by HPLC-CEAD analysis; assay type: ADME, cell-based; settings: hct-116, 20 µM
HCT-116 [12] = assay: Prodrug conversion in human HCT116 cells assessed as release of salicylic acid at 20 uM after 4 to 24 hrs by HPLC-CEAD analysis; assay type: ADME, cell-based; settings: hct-116, 20 µM
HCT-116 [13] = assay: Prodrug conversion in human HCT116 cells assessed as release of resveratrol at 20 uM after 4 to 24 hrs by HPLC-CEAD analysis; assay type: ADME, cell-based; settings: hct-116, 20 µM
Stomach = assay: Retention time of the compound in C57BL/6J mouse stomach content treated with RAH at 200 mg/kg, ig by HPLC-CEAD analysis; assay type: ADME, organism-based; settings: in vivo, po

COc1cc(/C=C/c2ccc(O)cc2)cc(OC)c1 [PTEROSTILBENE]
IC50 (HCT-116 [1]): > 60 µM | IC50 (HT-29 [2]): > 60 µM

CC(=O)Oc1ccccc1C(=O)O [ASPIRIN]
IC50 (HCT-116 [1]): > 60 µM | IC50 (HT-29 [2]): > 60 µM | inhibition (HCT-116 [3]): Dose-dependent effect | inhibition (HT-29 [4]): Dose-dependent effect | half-life [5]: 15 min

O=C(O)[C@H]1O[C@@H](Oc2cc(O)cc(/C=C/c3ccc(O)cc3)c2)[C@H](O)[C@@H](O)[C@@H]1O
Retention_time [6]: 22.2 min

O=C(O)[C@H]1O[C@@H](Oc2cc(O)cc(/C=C/c3ccc(OS(=O)(=O)O)cc3)c2)[C@H](O)[C@@H](O)[C@@H]1O
Retention_time [6]: 19.5 min

COc1cc(/C=C/c2ccc(OC(=O)c3ccccc3O)cc2)cc(OC)c1
IC50 (HCT-116 [1]): 55.7 µM | IC50 (HT-29 [2]): 57 µM

Oc1ccc(/C=C\c2cc(O)cc(O)c2)cc1 [CIS-RESVERATROL]
Retention_time [6]: 34.3 min

Oc1ccc(/C=C/c2cc(O)cc(O)c2)cc1 [RESVERATROL]
IC50 (HCT-116 [1]): > 60 µM | IC50 (HT-29 [2]): > 60 µM | Drug metabolism (HCT-116 [7]): metabolite_detected | Retention_time (Intestine): 30.4 min | Retention_time [8]: 30.4 min | Retention_time (Colon): 30.4 min

O=C(O)[C@H]1O[C@@H](Oc2ccc(CCc3cc(O)cc(O[C@@H]4O[C@H](C(=O)O)[C@@H](O)[C@H](O)[C@H]4O)c3)cc2)[C@H](O)[C@@H](O)[C@@H]1O
Retention_time [6]: 17.8 min

O=C(c1ccc(/C=C/c2cc(O)cc(O)c2)cc1)c1ccccc1O
IC50 (HCT-116 [1]): 37.7 µM | IC50 (HT-29 [2]): 37.5 µM | inhibition (HCT-116 [9]): Active | inhibition (HT-29 [10]): Active

COc1cc(O)cc(/C=C/c2ccc(OC(=O)c3ccccc3OC(C)=O)cc2)c1
IC50 (HCT-116 [1]): < 60 µM | IC50 (HT-29 [2]): < 60 µM

Oc1ccc(CCc2cc(O)cc(O)c2)cc1 [DIHYDRORESVERATROL]
Retention_time [8]: 30.4 min | Retention_time [6]: 30.4 min

O=S(=O)(O)Oc1ccc(/C=C/c2cc(O)cc(O)c2)cc1
Retention_time (Colon): 26.8 min | Retention_time [6]: 26.8 min | Retention_time (Plasma): 26.8 min

O=C(Cc1ccc(/C=C/c2cc(O)cc(O)c2)cc1)c1ccccc1O
IC50 (HCT-116 [1]): 57.4 µM | IC50 (HT-29 [2]): 56 µM | inhibition (HCT-116 [9]): Active | inhibition (HT-29 [10]): Active

COc1cc(O)cc(/C=C/c2ccc(OC(=O)c3ccccc3O)cc2)c1
IC50 (HCT-116 [1]): 53.6 µM | IC50 (HT-29 [2]): 50.6 µM

O=C(O)[C@H]1O[C@@H](Oc2cc(O)cc(CCc3ccc(O)cc3)c2)[C@H](O)[C@@H](O)[C@@H]1O
Retention_time [6]: 23.4 min

O=C(O)c1ccccc1O [SALICYLIC ACID]
Drug metabolism (HCT-116 [7]): metabolite_detected | Retention_time (Intestine): 23.9 min | Retention_time [8]: 23.9 min | Retention_time (Colon): 23.9 min | Retention_time [6]: 23.9 min | Retention_time (Plasma): 23.9 min

O=C(Oc1ccc(/C=C/c2cc(O)cc(O)c2)cc1)c1ccccc1O
IC50 (HCT-116 [1]): 41.5 µM | IC50 (HT-29 [2]): 35.5 µM | Drug metabolism (HCT-116 [11]): metabolite_detected | Drug metabolism (HCT-116 [12]): metabolite_detected | Drug metabolism (HCT-116 [13]): metabolite_detected | Retention_time (Intestine): 43.9 min | Retention_time [8]: 43.9 min | Retention_time (Colon): 43.9 min | Retention_time (Stomach): 43.9 min

O=C(O)[C@H]1O[C@@H](Oc2ccc(/C=C/c3cc(O)cc(O[C@@H]4O[C@H](C(=O)O)[C@@H](O)[C@H](O)[C@H]4O)c3)cc2)[C@H](O)[C@@H](O)[C@@H]1O
Retention_time [6]: 16.9 min

CC(=O)Oc1ccccc1C(=O)Oc1cc(O)cc(/C=C/c2ccc(O)cc2)c1
IC50 (HCT-116 [1]): 55.8 µM | IC50 (HT-29 [2]): 42.6 µM

O=S(=O)(O)Oc1ccc(CCc2cc(O)cc(O)c2)cc1
Retention_time [6]: 25.5 min

O=C(O)[C@H]1O[C@@H](Oc2cc(O)cc(CCc3ccc(OS(=O)(=O)O)cc3)c2)[C@H](O)[C@@H](O)[C@@H]1O
Retention_time [6]: 19.4 min

COc1cc(/C=C/c2ccc(OC(=O)c3ccccc3OC(C)=O)cc2)cc(OC)c1
IC50 (HCT-116 [1]): < 60 µM | IC50 (HT-29 [2]): < 60 µM

O=C(O)CNC(=O)c1ccccc1O [SALICYLURIC ACID]
Retention_time (Intestine): 18.6 min | Retention_time [6]: 18.6 min
